The source of these data is patent US20110098323A1, “INHIBITORS OF BACTERIAL BIOFILM FORMATION” (MICROBIOTIX, INC., priority 2009, published 2011).

Molecules are shown by their SMILES. Where two headings read alike, the source gives them in different places.

The test system of one test is S. aureus strain NRS-77. Description: MBIC/MIC secondary assay. The format is cell-based, Staphylococcus aureus. The note with it: for MIC: Staphylococcus aureus, NRS77. The protocol:
Assays for detecting and measuring bacterial biofilm formation are known in the art. An example of a biofilm formation assay useful in detecting and characterizing biofilm inhibitor compounds is described in Example 1, infra. Briefly, bacterial cells are inoculated into growth medium in individual wells of a 96-well assay plate in the presence or absence of a compound (known biofilm inhibitor or test compound). After incubation for a specified time, growth medium and non-biofilm bacterial cells are removed from each of the wells. The bacterial cells in any biofilms that are adhered to the surface of a well are fixed by addition of ethanol. The ethanol is removed, and the fixed biofilm bacteria cells are stained with crystal violet (CV). The intensity of CV staining is directly correlated with bacterial biofilm formation and is measured in the wells by reading the optical density at 600 nm (OD600). The difference in biofilm formation between untreated control and treated cultures provides an indication of relative biofilm inhibition activity (anti-biofilm activity). Use of different concentrations of an inhibitor in multiple and otherwise duplicate cultures permits determination of a compound's Minimal Biofilm Inhibitory Concentration (MBIC), which is defined herein as the lowest concentration of a compound that inhibits biofilm formation by at least 80% (i.e., ≧80%) compared to untreated control cultures. […]
(§1) A secondary assay provided a quantitative measure of both anti-biofilm activity and antibacterial activity in terms of the Minimal Biofilm Inhibitory Concentration (MBIC) and the Minimal Inhibitory Concentration (MIC), respectively. The MBIC and MIC are defined as the lowest compound concentrations that inhibit biofilm formation and bacterial growth, respectively, by at least 80% (i.e., ≧80%). The MBIC/MIC assay is formatted in a manner that is similar to the Microbroth dilution assays described by the Clinical and Laboratory Standards Institute (CLSI; formerly NCCLS) in protocol M7-A7. The growth conditions were optimized for biofilm growth in 96-well assay plates such that the resulting CV staining was within the linear range of detection. Therefore, the MBIC/MIC assay provided a stringent measure of anti-biofilm activity.
The assay was adapted for several biofilm-forming strains of S. epidermidis, S. aureus, Enterococcus faecalis, and Pseudomonas aeruginosa. Briefly, 96-well assay plates contained a two-fold dilution series for up to 8 compounds (one compound/row) and untreated controls (concentration range of 0.2 μM-100 μM). The assay plates were inoculated with the test bacterial species, e.g., S. epidermidis 18972 (0.5×TSB, 0.25% glucose) or S. aureus ATCC 35556 (0.5×TSB, 1% glucose). The inocula were prepared by diluting an overnight culture 1:100 in fresh media, which corresponds to approximately 5×10^6 cells/well. After inoculation, the assay plates were sealed with foil tape and incubated for 18 h-20 h at 37° C. The assay plates were processed, and the percent inhibition of growth (% INH-Growth) and percent inhibition of biofilm formation (% INH-Biofilm) were calculated as described above. […] Compounds with an MBIC≦10 μM and an MIC/MBIC ratio≧8 for either S. epidermidis or S. aureus were designated as validated hits.
Minimal Biofilm Inhibitory Concentration (MBIC) and Minimal Inhibitory Concentration (MIC) of the compounds in Table 3 were determined against various strains of biofilm-forming bacteria.

A further test concerns S. epidermidis 18972. Description: MBIC/MIC secondary assay (crystal violet biofilm staining / OD600 growth). In kind it is cell-based, Staphylococcus epidermidis. Particulars: for MIC: Staphylococcus epidermidis. The protocol: Assays for detecting and measuring bacterial biofilm formation are known in the art. An example of a biofilm formation assay useful in detecting and characterizing biofilm inhibitor compounds is described in Example 1, infra. Briefly, bacterial cells are inoculated into growth medium in individual wells of a 96-well assay plate in the presence or absence of a compound (known biofilm inhibitor or test compound). After incubation for a specified time, growth medium and non-biofilm bacterial cells are removed from each of the wells. The bacterial cells in any biofilms that are adhered to the surface of a well are fixed by addition of ethanol. The ethanol is removed, and the fixed biofilm bacteria cells are stained with crystal violet (CV). The intensity of CV staining is directly correlated with bacterial biofilm formation and is measured in the wells by reading the optical density at 600 nm (OD600). The difference in biofilm formation between untreated control and treated cultures provides an indication of relative biofilm inhibition activity (anti-biofilm activity). Use of different concentrations of an inhibitor in multiple and otherwise duplicate cultures permits determination of a compound's Minimal Biofilm Inhibitory Concentration (MBIC), which is defined herein as the lowest concentration of a compound that inhibits biofilm formation by at least 80% (i.e., ≧80%) compared to untreated control cultures.
A higher throughput was achieved by formatting the assay for use in flat-bottomed 96-well assay plates (Costar 3590 assay plates, Corning Life Sciences, Lowell, Mass.). The biofilm cultures grew on the bottoms of each well in a surface attached mode. In each assay plate, columns 1 and 12 contained untreated cultures, which served as negative controls (0% biofilm inhibition). Each of the assay wells in columns 2-11 contained a unique small molecule from the Microbiotix Screening Library (MSL) at a final concentration of 100 μM. Assay plates were inoculated with 200 μl/well of a culture of Staphylococcus pidermidis 18972 in 0.5×Tryptic Soy Broth (TSB; Becton Dickinson, Franklin Lakes, N.J.) in which the concentration of glucose was adjusted to 0.25% (w/v). The bacterial inocula were prepared by making a 1:100 dilution of an overnight culture grown in TSB in the media used for the screen. After inoculation, assay plates were sealed with foil tape and incubated at 37° C. for 18-20 hours (h). The optical density at 600 nm (OD600) was measured for each well using a VICTOR2V™ multiplate reader (Perkin Elmer, Waltham, Mass.) in order to quantify overall bacterial growth. The assay plates were processed to remove bacterial growth media and non-biofilm cells from the bottom of each assay well. This was accomplished by using a BioTek ELx405™ plate washer (BioTek Instruments, Inc., Winooski, Vt.). Biofilm bacteria were fixed by addition of 50 μl of 95% ethanol for 30 minutes (min). The ethanol was removed, and the fixed biofilm cultures were stained with 50 μl of 0.06% crystal violet (CV) for 60 min. Excess CV was removed by repeated washes using the BioTek ELx405™ plate washer. The amount of CV bound to each assay well was quantified by measuring OD600 using a VICTOR2V™ plate reader (Perkin Elmer).
as §1, with “Therefore, the MBIC/MIC assay provided a stringent measure of anti-biofilm activity.” left out

The mark [1] stands for this setting: S. epidermidis strain 18972, Table 4.

Take `CCOc1cc(/C=C2\SC(=S)N(c3ccc(F)cc3)C2=O)ccc1O` [Compound 4, 3-(4-fluorophenyl)-5-(3-ethoxy-4-hydroxybenzylidene)-2-thioxothiazolidin-4-one]: the MBIC in the test on S. aureus strain NRS-77 (S. aureus strain NRS-77) and with S. epidermidis 18972 (setting [1]) was 25 µM each time. The MIC in the test with S. aureus strain NRS-77 and in the test on S. epidermidis 18972 (18972) was no less than 100 µM throughout.

For the compound `CCOc1cc(/C=C2\SC(=S)N(c3cccc(F)c3)C2=O)ccc1O` [Compound 8, 3-(3-fluorophenyl)-5-(3-ethoxy-4-hydroxybenzylidene)-2-thioxothiazolidin-4-one], the MBIC in the test on S. aureus strain NRS-77 (S. aureus strain NRS-77) stood at 25 µM; in the test with S. epidermidis 18972 (setting [1]), 50 µM. Also, the MIC with S. aureus strain NRS-77 and against S. epidermidis 18972 (18972) was no less than 100 µM in each case.

Turning to `C=CCOc1cc(/C=C2\SC(=S)N(c3ccc(F)cc3)C2=O)ccc1O` [Compound 29, 3-(4-fluorophenyl)-5-(3-allyloxy-4-hydroxybenzylidene)-2-thioxothiazolidin-4-one], the MBIC with S. aureus strain NRS-77 (S. aureus strain NRS-77) came out at 12.5 µM; in the test with S. epidermidis 18972 (setting [1]), 25 µM. Also, the MIC in the test with S. aureus strain NRS-77 (S. aureus strain NRS-77, read-out: MIC) is no less than 100 µM; in the test with S. epidermidis 18972 (S. epidermidis strain 18972, Table 4, read-out: MIC), no less than 100 µM.

Turning to `CCOc1cc(/C=C2\SC(=S)N(c3cccc(C#N)c3)C2=O)ccc1O` [Compound 34, 3-(3-cyanophenyl)-5-(3-ethoxy-4-hydroxybenzylidene)-2-thioxothiazolidin-4-one], the figures for the MBIC with S. aureus strain NRS-77 (S. aureus strain NRS-77) and in the test on S. epidermidis 18972 (setting [1]) were 12.5 µM and 25 µM, respectively. The MIC against S. aureus strain NRS-77 and in the test on S. epidermidis 18972 (18972) was no less than 100 µM in each case.

Regarding `CCOc1cc(/C=C2\SC(=S)N(c3cccnc3)C2=O)ccc1O` [Compound 36, 3-(pyridin-3-yl)-5-(3-ethoxy-4-hydroxybenzylidene)-2-thioxothiazolidin-4-one], the MBIC in the test with S. aureus strain NRS-77 (S. aureus strain NRS-77) and in the test on S. epidermidis 18972 (setting [1]) was 12.5 µM in each case. The MIC with S. aureus strain NRS-77 and against S. epidermidis 18972 (18972) was no less than 100 µM throughout.

On to `CCOc1cc(/C=C2\SC(=S)N(c3ccc(F)nc3)C2=O)ccc1O` [Compound 40, 3-(6-fluoropyridin-3-yl)-5-(3-ethoxy-4-hydroxybenzylidene)-2-thioxothiazolidin-4-one], for which the MBIC in the test on S. aureus strain NRS-77 (S. aureus strain NRS-77) is 6.3 µM; with S. epidermidis 18972 (setting [1]), 25 µM. Moreover, the MIC in the test on S. aureus strain NRS-77 and in the test on S. epidermidis 18972 (18972) was no less than 100 µM throughout.
